Measured values published in PMC6147116 (Journal of Enzyme Inhibition and Medicinal Chemistry, 2018).
Like-named read-outs stand apart in the source and are kept apart here.

Key:
human aromatase = biological target: T1, human aromatase (Homo sapiens, UniProt P11511); assay: Aromatase inhibition, in vitro radiosubstrate incubation (testosterone to E2 conversion), human placental microsomes; type: biochemical; details: for remaining activity at 10 µM: 10 µM test compound, non-inhibited control 100%, mean ± SD, n = 3, read-out: Arom Rel.conv. ± SD
T1 construct: from tissue; host or cells: human term placenta, microsomal fraction
T1 sequence (P11511 1-503): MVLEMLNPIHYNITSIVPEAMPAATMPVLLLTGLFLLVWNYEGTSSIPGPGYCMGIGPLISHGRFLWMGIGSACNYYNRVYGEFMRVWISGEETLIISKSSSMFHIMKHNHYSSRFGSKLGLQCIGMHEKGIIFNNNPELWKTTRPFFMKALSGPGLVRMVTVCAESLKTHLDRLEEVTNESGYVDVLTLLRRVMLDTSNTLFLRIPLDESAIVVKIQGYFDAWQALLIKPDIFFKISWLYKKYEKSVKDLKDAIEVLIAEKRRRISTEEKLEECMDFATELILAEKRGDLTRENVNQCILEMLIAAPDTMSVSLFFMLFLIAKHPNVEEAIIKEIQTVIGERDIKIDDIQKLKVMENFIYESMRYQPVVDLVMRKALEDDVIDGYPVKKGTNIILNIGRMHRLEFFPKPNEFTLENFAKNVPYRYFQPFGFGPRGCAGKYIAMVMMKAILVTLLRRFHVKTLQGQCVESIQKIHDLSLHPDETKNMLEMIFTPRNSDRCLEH
Procedure: (§1) Enzyme inhibition studies were performed by in vitro radiosubstrate incubations using human term placenta cytosol and microsomas as enzyme sources. […] Relative conversions compared to non-inhibited controls (100%) were measured in the presence of 10 µM concentration of the test compound. […] Mechanistic and kinetic investigations were performed and inhibitory constants (Ki) were determined for selected compounds.
(§2) Enzymatic incubations were carried out in the HEPES buffer medium at a final volume of 200
(§3) µl. The substrate was added to the incubate in 20 µl of a 25 v/v% propylene glycol in HEPES buffer solution, whereas test compounds were applied in 10 µl of dimethyl sulfoxide solution.
Incubations were performed at 37 °C and terminated by cooling and the addition of organic solvents of the subsequent extraction procedure. Control samples with no inhibitor and blank samples were incubated simultaneously. The radioactivity of the products formed was measured by means of liquid scintillation counting (LSC) and taken as indicator of the […]
In the aromatase assays the microsoma suspension was incubated with appropriate concentration of unlabelled testosterone (2) substrate spiked with [1,2,6,7-3H]testosterone tracer, and in the presence of 0.1 mM NADPH cofactor excess. (In this case, solution of the substrate was prepared with acetonitrile instead of propylene glycol.) Incubation time was 40 min. The incubation mixture was extracted with toluene, then the toluene phase was drained and washed with HEPES buffer. Aromatase products containing phenolic hydroxy group were extracted with 1.2 M sodium hydroxide solution from the toluene extract and the alkaline phase was measured in the LSC. […]
was extracted with toluene. […]
(§4) In the general procedure, incubations were performed as described. Concentrations of the substrates were 1.0 µM, and the test compounds were applied at 10 µM final concentration in the incubate. Relative conversions compared to non-inhibited controls (100%) were determined. The assays were performed in triplicate, and the mean value and the standard deviation (SD) were calculated. […]
(§5) these cases, conversions were measured at 10–15 different concentrations in the appropriate interval between 0.001–50 µM. IC50 results were calculated by using unweighted iterative least squares logistic curve fitting by means of the “absolute IC50 calculation“ function of the GraphPad Prism 4.0 software (GraphPad Software, Inc., San Diego, CA, USA).
Kinetic analyses were performed via measurement of the enzymatic transformation using different fixed substrate concentrations and varied inhibitor concentrations. The Dixon’s linear transformation (1/velocity vs. inhibitor concentration) was applied for evaluation and the inhibition constant (Ki) was determined from abscissa of intersection of the lines of different substrate concentrations. Mechanism of binding was identified according to the […]

[1] = biological target: T2, 17β-hydroxysteroid dehydrogenase type 1 (17β-HSD1) (Homo sapiens, UniProt P14061); assay: 17β-HSD1 inhibition, in vitro radiosubstrate incubation (E1 to E2), human placental cytosol; Dixon kinetic analysis; type: biochemical; details: for IC50: E1 substrate 1.0 µM, NADPH excess, read-out: 17β-HSD1 IC50 ± SD; for 17β-HSD1 inhibition mechanism: Dixon's plot; for 17β-HSD1 inhibition mechanism / Ki: cofactor excess; for Ki: from Dixon plot
T2 sequence (P14061 1-328): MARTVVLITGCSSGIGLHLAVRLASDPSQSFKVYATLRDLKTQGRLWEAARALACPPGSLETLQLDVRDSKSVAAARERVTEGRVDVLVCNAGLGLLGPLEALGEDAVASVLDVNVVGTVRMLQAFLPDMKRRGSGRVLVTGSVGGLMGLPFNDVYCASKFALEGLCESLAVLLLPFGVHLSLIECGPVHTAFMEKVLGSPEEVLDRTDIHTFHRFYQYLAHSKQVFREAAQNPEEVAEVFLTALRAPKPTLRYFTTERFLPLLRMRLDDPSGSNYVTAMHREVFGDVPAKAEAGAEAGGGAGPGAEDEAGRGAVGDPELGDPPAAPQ
Procedure: as §1
Inhibitors that bind to the steroid site of 17β-HSD1 can bind to both the free enzyme and the binary enzyme–cofactor complex by random kinetic mechanism.
as §2, §3
(§6) Incubations were performed at 37 °C and terminated by cooling and the addition of organic solvents of the subsequent extraction procedure. Control samples with no inhibitor and blank samples were incubated simultaneously. […]
The incubation time was 2.5 min. The product 17β-estradiol (E2, 5) was extracted with ethyl acetate and isolated by a TLC method (details are published in our earlier reference).
as §4, §5
(§7) Kinetic analyses were performed via measurement of the enzymatic transformation using different fixed substrate concentrations and varied inhibitor concentrations. The Dixon’s linear transformation (1/velocity vs. inhibitor concentration) was applied for evaluation and the inhibition constant (Ki) was determined from abscissa of intersection of the lines of different substrate concentrations. Mechanism of binding was identified according to the Dixon’s graphs and the secondary plot of slopes of the Dixon’s lines vs. 1/substrate […]
The inhibitor compounds were preincubated with the appropriate placenta fraction in a volume of 4.0 µl at 37 °C for various time periods (2.5-40 min). Following this procedure, samples were diluted with the incubation medium to 50-fold. Enzyme activity measurements

steroid sulfatase (STS) [2] = biological target: T3, steroid sulfatase (STS) (Homo sapiens, UniProt P08842); assay: STS inhibition, in vitro radiosubstrate incubation (release of E1 from E1S), human placental microsomes; Dixon kinetic analysis; type: biochemical; details: for STS inhibition mechanism: Dixon's plots; for Ki: from Dixon plot; for remaining activity at 10 µM: 10 µM test compound, non-inhibited control 100%, mean ± SD, n = 3, read-out: STS Rel.conv. ± SD
T3 construct: from tissue; host or cells: human term placenta, microsomal fraction
T3 sequence (P08842 22-583): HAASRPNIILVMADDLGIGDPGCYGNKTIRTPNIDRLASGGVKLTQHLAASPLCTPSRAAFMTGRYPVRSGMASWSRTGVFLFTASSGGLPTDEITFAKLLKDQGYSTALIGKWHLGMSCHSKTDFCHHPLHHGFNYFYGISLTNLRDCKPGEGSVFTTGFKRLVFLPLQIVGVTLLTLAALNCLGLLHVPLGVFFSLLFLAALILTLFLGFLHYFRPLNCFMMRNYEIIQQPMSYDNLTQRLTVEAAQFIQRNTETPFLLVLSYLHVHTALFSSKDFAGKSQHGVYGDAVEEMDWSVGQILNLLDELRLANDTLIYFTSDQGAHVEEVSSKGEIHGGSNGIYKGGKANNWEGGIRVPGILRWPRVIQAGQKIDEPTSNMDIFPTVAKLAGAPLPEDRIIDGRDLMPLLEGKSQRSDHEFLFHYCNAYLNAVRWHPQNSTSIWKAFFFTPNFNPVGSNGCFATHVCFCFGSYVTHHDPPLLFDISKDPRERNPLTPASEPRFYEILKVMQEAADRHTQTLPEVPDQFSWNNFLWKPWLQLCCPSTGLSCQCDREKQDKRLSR
Procedure: as §1
Kinetic analyses of selected compounds 7a and 16c were performed by measurement of enzyme activities using different fixed substrate concentrations and varied inhibitor concentrations.
as §2, §3, §6
The incubation time was 2.5 min. […]
as §4, §5, §7
The inhibitor compounds were preincubated with the appropriate placenta fraction in a volume of 4.0 µl at 37 °C for various time periods (2.5-40 min). Following this procedure, […]

aromatase enzyme = biological target: aromatase enzyme; design: method as in PMID 16039845; details: cited from earlier work
steroid sulfatase (STS) [3] = biological target: T3, steroid sulfatase (STS); assay: STS inhibition reversibility test (preincubation with placental microsomes, 50-fold dilution); type: biochemical; details: preincubation 7a 1.5 μM, 16c 10 μM; for STS binding reversibility: 50-fold dilution, 20 min secondary incubation
[4] = biological target: T2, 17β-hydroxysteroid dehydrogenase type 1 (17β-HSD1); details: earlier paper of the authors; read-out: 17β-HSD1 IC50 ± SD; cited from earlier work
17β-HSD1 = biological target: T4, 17β-HSD1 (Homo sapiens, UniProt P14061); assay: 17β-HSD1 inhibition reversibility test (preincubation with placental cytosol, 50-fold dilution); type: biochemical; details: preincubation 10 μM, 2.5 and 20 min
T4 construct: from tissue; host or cells: human term placenta, cytosolic fraction
T4 sequence (P14061 1-328): T2 sequence (P14061 1-328)
Procedure: as §5, §7
The inhibitor compounds were preincubated with the appropriate placenta fraction in a volume of 4.0 µl at 37 °C for various time periods (2.5-40 min). Following this procedure, samples were diluted with the incubation medium to 50-fold. Enzyme activity measurements were started immediately for the 17β-HSD1 and after 20 min secondary incubation time to allow dissociation in the case of STS. […]

[5] = E1S substrate 1.0 µM, read-out: STS IC50 ± SD

Row | SMILES | IC50 (human aromatase) [nM] | IC50 [1] [nM] | IC50 (steroid sulfatase (STS) [2]; [5]) [nM] | remaining activity at 10 µM (human aromatase) [%] | IC50 [4] [nM] | other results
1 | C[C@]12CC[C@@H]3c4cc(Br)c(O)cc4CC[C@H]3[C@@H]1CCC2=O [6b, 2-Bromoestrone] | 8700 ± 2800 | 95 ± 31 | 2000 ± 400 | – | – | IC50 (aromatase enzyme): 2400 nM
2 | C[C@]12CC[C@@H]3c4cc(Cl)c(O)cc4CC[C@H]3[C@@H]1CCC2=O [6c, 2-Chloroestrone] | 6000 ± 1200 | 180 ± 20 | 2400 ± 400 | – | – | Ki (aromatase enzyme): 130 nM; enhancement in affinity to aromatase compared to E1 (aromatase enzyme): ~20 fold
3 | C[C@]12CC[C@@H]3c4ccc(O)c(I)c4CC[C@H]3[C@@H]1CCC2=O [7a, 4-iodoestrone] | – | 360 ± 250 | 230 ± 90 | 88 ± 2 | – | time in which irreversible binding to STS is nearly completed (steroid sulfatase (STS) [3]): ≤ 2.5 min; STS binding reversibility (steroid sulfatase (STS) [3]): irreversible; STS inhibition mechanism (steroid sulfatase (STS) [2]): competitive; Ki (steroid sulfatase (STS) [2]): 360 nM; STS affinity higher compared to the E1S substrate (steroid sulfatase (STS) [2]; from IC50 values): 22 fold; STS affinity increased compared to E1 (steroid sulfatase (STS) [2]; from IC50 values): 100 fold
4 | C[C@@]12CC[C@@H]3c4cc(Br)c(O)cc4CC[C@H]3[C@@H]1CCC2=O [10b] | – | – | – | 100 ± 5 | 1200 ± 300 | remaining activity at 10 µM (steroid sulfatase (STS) [2]): 81 ± 6%
5 | C[C@@]12CC[C@@H]3c4ccc(O)c(I)c4CC[C@H]3[C@@H]1CCC2=O [11a] | – | 380 | 6000 ± 1600 | 90 ± 7 | 1000 ± 300 | 17β-HSD1 inhibition mechanism [1]: competitive; Ki [1]: 2200 nM; 17β-HSD1 binding reversibility (17β-HSD1): reversible
6 | C[C@@]12CC[C@@H]3c4ccc(O)c(Br)c4CC[C@H]3[C@@H]1CCC2=O [11b] | – | – | 8500 ± 3100 | 78 ± 1 | 2100 ± 1200 | –
7 | C[C@@]12CC[C@@H]3c4cc(I)c(O)c(I)c4CC[C@H]3[C@@H]1CCC2=O [12a] | – | 1000 | 2400 ± 500 | 91 ± 1 | 380 ± 80 | 17β-HSD1 inhibition mechanism [1]: competitive; Ki [1]: 940 nM; 17β-HSD1 binding reversibility (17β-HSD1): reversible
8 | C[C@@]12CC[C@@H]3c4cc(Br)c(O)c(Br)c4CC[C@H]3[C@@H]1CCC2=O [12b] | – | – | – | 108 ± 11 | 2700 ± 100 | remaining activity at 10 µM (steroid sulfatase (STS) [2]): 71 ± 4%
9 | C[C@]12CCC[C@H]1[C@@H]1CCc3c(cc(Cl)c(O)c3Cl)[C@H]1CC2 [16c, 2,4-bis-chloro-17-deoxy-13α-estrone] | – | – | 1300 ± 400 | 82 ± 12 | – | time in which irreversible binding to STS is nearly completed (steroid sulfatase (STS) [3]): ≤ 2.5 min; STS binding reversibility (steroid sulfatase (STS) [3]): irreversible; 17β-HSD1 Rel.conv. ± SD ([1]; 10 µM test compound, non-inhibited control 100%, mean ± SD, n = 3): 53 ± 2%; STS inhibition mechanism (steroid sulfatase (STS) [2]): competitive; Ki (steroid sulfatase (STS) [2]): 1900 nM
10 | C[C@]12CC[C@@H]3c4ccc(O)cc4CC[C@H]3[C@@H]1CCC2=O [E1 (4), estrone, reference compound] | > 10000 | – | – | 78 | – | IC50 (steroid sulfatase (STS) [2]): 24000 ± 10000 nM; Ki (aromatase enzyme): 2500 nM
